Where two headings read alike, the source gives them in different places.
How the values were obtained:
[1] = system: P450-Glo detection reaction (unspecific esterase and modified firefly-luciferase); assay: P450-Glo detection reaction control (luciferin-EGE, esterase, luciferase, test compound, no CYP2D6); details: for P450-Glo Detection Reaction MEAN Diff. (inhibition of the detection reaction) / P450-Glo Detection Reaction MEAN (total luminescence): 50 µM test compound; for P450-Glo Detection Reaction MEAN Diff. (inhibition of the detection reaction): difference to DMSO 1% control; for P450-Glo Detection Reaction MEAN (total luminescence): no CYP2D6, DMSO control = 100; for p < 0.05 (significant inhibition of the P450-Glo detection reaction): 50 µM, one-way ANOVA, Dunnett's test vs DMSO control
Excerpt: This detection-reagent consists of i) a detergent that stops the CYP2D6 enzyme reaction, ii) an unspecific esterase that continuously releases luciferin and iii) a modified firefly-luciferase, thus a stable luminogenic signal is generated, which can be quantified by a luminometer (Fig. 1). The detection reaction is incorporated in the P450-Glo CYP2D6 inhibition assay. However, we implemented additional controls for unspecific interactions of the test compounds with the detection reaction. For this purpose, the previously established luminescence quenching control reaction reported by Modarai et al.[9] was adapted to our requirements with modifications for the use of larger sample volumes. In addition, Modarai et al. converted ME-luciferin-EGE to luciferin in the absence of a test compound and then evaluated the inhibition of the luciferase reaction.We conducted the control step by using pure luciferin-EGE, esterase, luciferase and a test compound in the absence of CYP2D6 (Supplementary Table S4).
The quantification of the P450-Glo detection reaction was performed by subtracting the background values prior to calculating the percentage of total luminescence (% TL) based on the total luminescence obtained from the solvent control (set to 100%).
We then added 12.5 µl 4× reaction mixture (5 µl 1.5 mM luciferin-EGE stock solution, 500 µl 1 M KPO4 buffer and 745 µl luciferase free water) to the wells. Finally, 25 µl of the 2× NADPH regeneration system was added. In order to initiate the detection reaction, 50 µl of the reconstituted luciferin detection reagent containing the esterase was added to the samples, positive and solvent control wells. This step was followed by 20 minutes incubation in the dark for signal stabilization. In the wells reserved for background luminescence, luciferase-free water was added. Measurements were performed on a Tecan infinite F200 PRO plate reader on two independent days (n = 2) at minimum.
(§1) Raw data obtained from Tecan infinite F200 PRO plate reader was processed by calculating total luminescence (% of untreated control) by applying the formula: raw data − (background luminescence) * 100/mean of negative control.
A one-way ANOVA followed by Dunnett’s multiple comparisons test was performed. […] A p-value of < 0.05 was used to indicate significance.

CYP2D6 [2] = assay: CYP2D6 inhibition of virtual hits already reported in the literature
Excerpt: the hits according to non-available CYP2D6 inhibition data, plant origin and availability. The

CYP2D6 [3] = details: Supplementary Table S2, supplementary reference list, cited from earlier work; for IC50: read-out: Inhibitory potency IC50
CYP2D6 [4] = molecular target: CYP2D6 (Homo sapiens, UniProt P10635); assay: P450-Glo CYP2D6 inhibition assay (bioluminescence-based; pre-screen at 100 µM and IC50 determination); details: for classification of CYP2D6 inhibition (actives / weak actives / inactives): ranked by IC50, inactives from pre-screen at 100 µM
CYP2D6 (Homo sapiens, UniProt P10635), sequence (P10635 whole entry): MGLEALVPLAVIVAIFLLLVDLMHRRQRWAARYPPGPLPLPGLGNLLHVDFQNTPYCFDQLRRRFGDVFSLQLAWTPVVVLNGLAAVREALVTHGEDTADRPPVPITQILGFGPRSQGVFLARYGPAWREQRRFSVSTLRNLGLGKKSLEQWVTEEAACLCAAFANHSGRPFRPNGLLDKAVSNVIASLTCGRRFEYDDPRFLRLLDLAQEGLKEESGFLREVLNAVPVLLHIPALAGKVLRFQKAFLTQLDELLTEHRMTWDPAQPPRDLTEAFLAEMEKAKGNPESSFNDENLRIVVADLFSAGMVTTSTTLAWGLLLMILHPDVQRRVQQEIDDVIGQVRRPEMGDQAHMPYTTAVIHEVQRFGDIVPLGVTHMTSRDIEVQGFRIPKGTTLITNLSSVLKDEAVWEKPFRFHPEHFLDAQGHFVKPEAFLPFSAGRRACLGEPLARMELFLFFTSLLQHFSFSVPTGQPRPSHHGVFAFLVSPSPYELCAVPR
Method: Their CYP2D6 inhibitory potential was determined at a concentration of 100 µM in a final reaction volume of 50 µl. […] All compounds were dissolved in DMSO and the concentration thereof in the final reaction volume was 1%, according to the limitations indicated in the manufacturer’s protocol. […] To take into account the background luminescence, which may derive from a non-enzymatic conversion of ME-luciferin-EGE to luciferin, we included a ‘minus P450’ control that contained no CYP2D6 enzyme. In order to quantify CYP2D6 activity, we subtracted background values prior to calculating the percentage of total luminescence (% TL) obtained from the solvent control (set to 100%). Low % TL indicates low CYP2D6 activity.
In the three minus P450 control wells, 12.25 µl of the 4× reaction mixture was added. […] The plate was incubated for 10 minutes. The CYP2D6 enzyme reaction was initiated by the addition of 25 µl of 2× NADPH regeneration system (2.6 mM NADP^+, 6.6 mM glucose-6-phosphate, 6.6 mM MgCl2 and 0.8 U/ml glucose-6-phosphate dehydrogenase buffered in 0.1 mM sodium citrate at pH 5.5; Promega). After 45 minutes incubation, the enzyme reaction was stopped by the addition of 50 µl of the luciferin detection reagent, which contained also the esterase for the generation of the luminescence signal. The plate was incubated in the dark for 20 minutes in order to stabilize the signal measured by a Tecan infinite F200 PRO plate reader. […] The maximum allowed DMSO concentration in the final reaction mix was 1% according to the manufacturer’s protocol. The experiment was performed at room temperature and under prevention of excessive UV-light at minimum on two independent days (n = 2).
Concentration-dependent CYP2D6 inhibition assays were performed by preparing a 5-step dilution series of the 400 µM compound solutions. […] After this dilution step, 12.5 µl of each dilution was transferred to the assay plate. The assay was performed as described above. The DMSO concentration was kept constant for all concentrations with a maximum of 1%. The experiments were performed on three independent experimental days (n = 3).
as §1

[5] = authors' classification of the literature value, Supplementary Table S2
[6] = IC50, P450-Glo CYP2D6 Inhibition Assay, recombinant human CYP2D6, 6 concentrations (compound 18: 4), n = 3

Row | Structure (SMILES) | P450-Glo Detection Reaction MEAN Diff. (inhibition of the detection reaction) [1] [%] | P450-Glo Detection Reaction MEAN (total luminescence) [1] [% TL] | p < 0.05 (significant inhibition of the P450-Glo detection reaction) [1] | IC50 (CYP2D6 [4]) [µM] | classification of CYP2D6 inhibition (actives / weak actives / inactives) (CYP2D6 [4]) | other results
1 | COC(=O)N1c2ccccc2C23C4CN5CCCC6(CCC12C(O)(C6)C4=O)C53 (single isomer, unassigned; (-)) [Compound 16, (-)-Kopsine] | 10.30 | 89.70 | Yes |  |  | 
2 | COC1=C[C@@H]2[C@@H]3Cc4ccc(OC)c(O)c4[C@]2(CCN3C)CC1=O [Sinomenine] |  |  |  |  |  | Classification of literature CYP2D6 inhibition (CYP2D6 [2]; [5]): inactive; Inhibitory potency (CYP2D6 [3]; at 50 µM): no inhibition
3 | COc1ccc(CC2c3cc(OC)c(OC)cc3CCN2C)cc1OC (stereo not shown) [Laudanosine] |  |  |  |  |  | Classification of literature CYP2D6 inhibition (CYP2D6 [2]; [5]): unclear; Inhibitory potency (CYP2D6 [3]): stated as inhibitor
4 | COc1cc2c(cc1O)-c1c(O)c(OC)cc3c1[C@H](C2)N(C)CC3 [Compound 18, Bracteoline] | 12.30 | 87.70 | Yes | 2.11 | actives (those compounds were classified as active, which exhibited CYP2D6 IC50 values up to 10 µM) | 
5 | COC(=O)C1=CO[C@@H](C)[C@@H]2CN3CC[C@]4(C(=O)Nc5ccccc54)[C@@H]3C[C@H]12 [Compound 1, Pteropodine] | 7.50 | 92.50 | Yes | 33.8 | weak actives | 
6 | COC(=O)C1CC23C=CCN4CCC5(c6ccccc6NC15CC2)C43 (single isomer, unassigned; (-)) [Compound 10, (-)-Venalstonine] | 3.66 | 96.34 | No |  |  | 
7 | COc1cc2c(cc1OC)[C@H]1[C@@H](C)c3ccc(OC)c(OC)c3CN1CC2 [Corydaline] |  |  |  |  |  | Classification of literature CYP2D6 inhibition (CYP2D6 [2]; [5]): weak; Classification of literature CYP2D6 inhibition (CYP2D6 [2]; w/o preincubation, authors' classification of the literature value, Supplementary Table S2): inactive; IC50 (CYP2D6 [3]; w/ preincubation): 64.5 ± 9.8 µM; IC50 (CYP2D6 [3]; w/o preincubation): 116 ± 7.6 µM
8 | COc1cc2c(cc1OC)-c1cc3ccc(OC)c(OC)c3c[n+]1CC2 [Palmatine chloride] |  |  |  |  |  | Classification of literature CYP2D6 inhibition (CYP2D6 [2]): weak; Inhibitory potency (IC50/Ki not specified) (CYP2D6 [3]): 92.6 µM
9 | COc1cc2c(cc1OC)C(=O)Cc1ccc3c(c1CN(C)CC2)OCO3 [Cryptopine] |  |  |  |  |  | Classification of literature CYP2D6 inhibition (CYP2D6 [2]; [5]): unclear; Inhibitory potency (CYP2D6 [3]): stated as inhibitor
10 | COc1cc2c(cc1OC)[C@@H]1Cc3ccc(OC)c(OC)c3CN1CC2 [Tetrahydropalmatine] |  |  |  |  |  | Classification of literature CYP2D6 inhibition (CYP2D6 [2]; [5]): active; IC50 (CYP2D6 [3]): 3.04 ± 0.26 µM
11 | C=C[C@H]1CN2CC[C@H]1C[C@H]2[C@H](O)c1ccnc2ccccc12 [Cinchonidine] |  |  |  |  |  | Classification of literature CYP2D6 inhibition (CYP2D6 [2]; [5]): active; IC50 (CYP2D6 [3]): 10 µM
12 | CN1CCc2cc3c(cc2C(=O)Cc2ccc4c(c2C1)OCO4)OCO3 [Protopine] |  |  |  |  |  | Classification of literature CYP2D6 inhibition (CYP2D6 [2]): active; Ki (CYP2D6 [3]; read-out: Inhibitory potency Ki): 0.078 µM
13 | COc1ccc(CC2c3cc(O)c(OC)cc3CCN2C)cc1O (single isomer, unassigned; (+)) [Compound 19, (+)-Reticuline] | 1.06 | 98.94 | No | 0.0547 | actives (those compounds were classified as active, which exhibited CYP2D6 IC50 values up to 10 µM) | 
14 | COc1ccc(/C=C\c2cc(OC)c(OC)cc2CCN(C)C)cc1 [Compound 15, Des-N,O-dimethylarmepavine] | 6.23 | 93.77 | Yes | 0.198 | actives (those compounds were classified as active, which exhibited CYP2D6 IC50 values up to 10 µM) | 
15 | COc1ccc(C[C@H]2c3cc(OC)c(OC)cc3CCN2C)cc1O [Compound 11, (+)-Laudanidine] | 5.86 | 94.14 | Yes | 0.38 | actives (those compounds were classified as active, which exhibited CYP2D6 IC50 values up to 10 µM) | 
16 | CC=C1C2CCN3CCC4(C(=C2C(=O)OC)Nc2ccccc24)C13 (single isomer, unassigned; (+)) [Compound 17, (+)-Condylocarpine] | 7.34 | 92.66 | Yes | 8.16 | actives (those compounds were classified as active, which exhibited CYP2D6 IC50 values up to 10 µM) | 
17 | COc1ccc(C[C@@H]2NCCc3cc(OC)c(O)cc32)cc1O [Compound 9, (S)-Norreticuline] | 7.64 | 92.36 | Yes |  | actives (those compounds were classified as active, which exhibited CYP2D6 IC50 values up to 10 µM) | IC50 at 45 min (CYP2D6 [4]; human, recombinant human CYP2D6 baculosomes, pH 7.4, probe ME-luciferin-EGE): 0.0636 µM
18 | COc1cc2c(cc1OC)C1Cc3cc(O)c(O)cc3CN1CC2 (stereo not shown) [Compound 14, Spinosine] | 4.73 | 95.27 | Yes | 0.117 | actives (those compounds were classified as active, which exhibited CYP2D6 IC50 values up to 10 µM) | 
19 | O=C(O)c1ccccc1-n1ccc2c([nH]c3ccccc32)c1=O [Compound 5, Secofascaplysic acid] | 20.46 | 79.54 | Yes | 50.4 | weak actives | 
20 | COC1=C[C@]23CCN(C)[C@H](Cc4ccc(OC)c(O)c42)C3=CC1=O [Compound 20, (+)-Salutaridine] | 2.94 | 97.06 | No | 24 | weak actives | 
21 | COC(=O)C1=CO[C@@H](C)[C@H]2CN3CC[C@@]4(C(=O)Nc5ccccc54)[C@@H]3C[C@H]12 [Compound 23, Isomitraphylline] | 0.59 | 99.41 | No |  |  | 
22 | O=C(NCCCCNCCCNC(=O)c1ccc(O)c(O)c1)c1ccc(O)c(O)c1 [Compound 4, Pistillarin] | 13.61 | 86.39 | Yes |  |  | 
23 | COc1ccc2c(c1OC)CN1CCc3cc4c(cc3C1C2C)OCO4 (stereo not shown) [Compound 3, Thalictrivacine] | 8.23 | 91.77 | Yes |  | actives (those compounds were classified as active, which exhibited CYP2D6 IC50 values up to 10 µM) | IC50 (CYP2D6 [4]; [6]): 5.14 µM
24 | CC[C@]12C=CCN3CC[C@]4(C(=C(C(=O)OC)C1)Nc1ccccc14)[C@@H]32 [Compound 22, Tabersonine] |  | 104.20 | Yes |  | actives (those compounds were classified as active, which exhibited CYP2D6 IC50 values up to 10 µM) | IC50 (CYP2D6 [4]; [6]): 0.419 µM
25 | COC(=O)C1C(O)CCC2C[N+]3(C)CCc4c([nH]c5cccc(OC)c45)C3CC21 (stereo not shown) [Compound 8, Venenatine methiodide] | 9.14 | 90.86 | Yes | 4.6 | actives (those compounds were classified as active, which exhibited CYP2D6 IC50 values up to 10 µM) | 
26 | CCC1=CC2CN3CCc4c([nH]c5ccccc45)C(C(=O)OC)(C2)C13 (single isomer, unassigned; (+)) [Compound 7, (+)-Catharanthine] | 6.41 | 93.59 | Yes | 0.582 | actives (those compounds were classified as active, which exhibited CYP2D6 IC50 values up to 10 µM) | 

Source: article PMC5556109, “A combinatorial approach for the discovery of cytochrome P450 2D6 inhibitors from nature” (Scientific Reports, 2017)
